Test results published in ChEMBL document CHEMBL4421727, “Small molecule inhibitors of 8-oxoguanine dna glycosylase-1 (ogg1)” (2017).
The source made the active and inactive calls. No cut-off for these calls is given here.

Tests used:
Endonuclease 8-like 1 [1] = target: T1, Endonuclease 8-like 1 (Homo sapiens, UniProt Q96FI4); test: Inhibition of NEIL1 (unknown origin) assessed as remaining enzyme activity at 50 uM using Sp/Gh substrate incubated for 40 mins by TAMRA fluorescence-based assay
[2] = target: T2, Endonuclease III-like protein 1 (Homo sapiens) (UniProt P78549); test: Inhibition of NTH1 (unknown origin) assessed as remaining enzyme activity at 50 uM incubated for 40 mins by TAMRA fluorescence-based assay
T2 sequence (whole entry): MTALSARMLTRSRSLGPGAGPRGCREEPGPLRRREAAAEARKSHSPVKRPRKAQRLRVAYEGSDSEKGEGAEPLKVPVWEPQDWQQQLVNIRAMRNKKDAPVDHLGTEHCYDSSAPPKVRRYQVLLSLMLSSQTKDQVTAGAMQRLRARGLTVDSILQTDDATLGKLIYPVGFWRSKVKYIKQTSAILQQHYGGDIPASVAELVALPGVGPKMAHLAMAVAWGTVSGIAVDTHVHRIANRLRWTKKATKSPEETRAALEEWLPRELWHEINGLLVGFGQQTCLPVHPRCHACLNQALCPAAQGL

[3] = target: T3, Formamidopyrimidine-DNA glycosylase (Escherichia coli (strain K12)) (UniProt P05523); test: Inhibition of Escherichia coli FPG assessed as remaining enzyme activity at 50 uM using 8-oxo-Gua substrate incubated for 10 mins by TAMRA fluorescence-based assay
T3 sequence (whole entry): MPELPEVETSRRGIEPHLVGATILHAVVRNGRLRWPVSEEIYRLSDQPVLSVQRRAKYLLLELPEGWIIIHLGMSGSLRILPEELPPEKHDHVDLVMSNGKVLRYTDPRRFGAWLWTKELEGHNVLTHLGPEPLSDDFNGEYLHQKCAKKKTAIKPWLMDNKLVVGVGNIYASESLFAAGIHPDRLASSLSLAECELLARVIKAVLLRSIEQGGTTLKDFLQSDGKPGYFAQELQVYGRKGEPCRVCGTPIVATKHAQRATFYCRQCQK

Endonuclease 8-like 1 [4] = target: T1, Endonuclease 8-like 1; test: Inhibition of NEIL1 (unknown origin) using Sp/Gh substrate incubated for 40 mins by TAMRA fluorescence-based assay
[5] = target: T4, Endonuclease III-like protein 1 (Homo sapiens, UniProt P78549); test: Inhibition of NTH1 (unknown origin) incubated for 40 mins by TAMRA fluorescence-based assay
T4 sequence (P78549 whole entry): T2 sequence (whole entry)

[6] = target: T5, Formamidopyrimidine-DNA glycosylase (Escherichia coli (strain K12), UniProt P05523); test: Inhibition of Escherichia coli FPG using 8-oxo-Gua substrate incubated for 10 mins by TAMRA fluorescence-based assay
T5 sequence (P05523 whole entry): T3 sequence (whole entry)

Endonuclease 8-like 1 [7] = target: T1, Endonuclease 8-like 1; test: Inhibition of NEIL1 (unknown origin) assessed as effect on DNA lesions per 10^6 DNA bases using FapyAde substrate incubated for 1 hr by GC-MS/MS assay
Endonuclease 8-like 1 [8] = target: T1, Endonuclease 8-like 1; test: Inhibition of NEIL1 (unknown origin) assessed as effect on DNA lesions per 10^6 DNA bases using FapyGua substrate incubated for 1 hr by GC-MS/MS assay
Endonuclease 8-like 1 [9] = target: T1, Endonuclease 8-like 1; test: Inhibition of NEIL1 (unknown origin) assessed as effect on DNA lesions per 10^6 DNA bases using 5-OH-5-MeHyd substrate incubated for 1 hr by GC-MS/MS assay
[10] = target: T2, Endonuclease III-like protein 1 (Homo sapiens); test: Inhibition of NTH1 (unknown origin) assessed as effect on DNA lesions per 10^6 DNA bases using FapyAde substrate incubated for 1 hr by GC-MS/MS assay
[11] = target: T2, Endonuclease III-like protein 1 (Homo sapiens); test: Inhibition of NTH1 (unknown origin) assessed as effect on DNA lesions per 10^6 DNA bases using FapyGua substrate incubated for 1 hr by GC-MS/MS assay
[12] = target: T2, Endonuclease III-like protein 1 (Homo sapiens); test: Inhibition of NTH1 (unknown origin) assessed as effect on DNA lesions per 10^6 DNA bases using 5-OH-5-MeHyd substrate incubated for 1 hr by GC-MS/MS assay
[13] = target: T2, Endonuclease III-like protein 1 (Homo sapiens); test: Inhibition of NTH1 (unknown origin) assessed as effect on DNA lesions per 10^6 DNA bases using thymine glycol substrate incubated for 1 hr by GC-MS/MS assay
[14] = target: T2, Endonuclease III-like protein 1 (Homo sapiens); test: Inhibition of NTH1 (unknown origin) assessed as effect on DNA lesions per 10^6 DNA bases using 5-hydroxycytosine substrate incubated for 1 hr by GC-MS/MS assay
[15] = Binding affinity to duplex DNA (unknown origin) assessed as induction of DNA intercalation at 50 uM incubated for 30 mins by gel electrophoresis
[16] = target: T3, Formamidopyrimidine-DNA glycosylase (Escherichia coli (strain K12)); test: Inhibition of Escherichia coli FPG assessed as reduction in enzyme-mediated incision using compound pre-incubated with 8-oxo-Gua substrate for 30 mins at 37 degC followed by enzyme addition
[17] = target: T3, Formamidopyrimidine-DNA glycosylase (Escherichia coli (strain K12)); test: Inhibition of Escherichia coli FPG assessed as reduction in enzyme-mediated incision using compound pre-incubated with AP-site containing DNA substrate for 30 mins at 37 degC followed by enzyme addition
N-glycosylase/DNA lyase [18] = target: T6, N-glycosylase/DNA lyase (Homo sapiens, UniProt O15527); test: Inhibition of human OGG1 assessed as reduction in AP lyase activity using AP-containing substrate
T6 sequence (O15527 whole entry): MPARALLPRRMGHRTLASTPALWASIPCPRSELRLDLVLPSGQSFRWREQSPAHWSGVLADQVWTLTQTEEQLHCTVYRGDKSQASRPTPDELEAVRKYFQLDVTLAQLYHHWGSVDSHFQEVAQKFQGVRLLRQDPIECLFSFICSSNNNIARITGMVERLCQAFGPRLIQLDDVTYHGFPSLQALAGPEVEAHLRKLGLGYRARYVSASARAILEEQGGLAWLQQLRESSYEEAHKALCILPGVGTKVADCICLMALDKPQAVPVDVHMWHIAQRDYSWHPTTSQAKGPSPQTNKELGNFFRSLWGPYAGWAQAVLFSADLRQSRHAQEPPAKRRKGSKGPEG

N-glycosylase/DNA lyase [19] = target: T6, N-glycosylase/DNA lyase; test: Inhibition of human OGG1 assessed as reduction in free 8-oxo-Gua release using gamma-irradiated calf thymus DNA substrate incubated for 1 hr by GC-MS/MS assay
N-glycosylase/DNA lyase [20] = target: T6, N-glycosylase/DNA lyase; test: Inhibition of human OGG1 assessed as reduction in free Inhibition of human OGG1 assessed as reduction in free FapyGua release using gamma-irradiated calf thymus DNA substrate incubated for 1 hr by GC-MS/MS assay
N-glycosylase/DNA lyase [21] = target: T6, N-glycosylase/DNA lyase; test: Inhibition of human OGG1 binding to 8-oxo-Gua substrate using compound pre-incubated with enzyme for 5 to 10 mins before substrate addition and further incubated for 5 mins by native gel electrophoresis based by gel-shift assay

T1 sequence (Q96FI4 whole entry): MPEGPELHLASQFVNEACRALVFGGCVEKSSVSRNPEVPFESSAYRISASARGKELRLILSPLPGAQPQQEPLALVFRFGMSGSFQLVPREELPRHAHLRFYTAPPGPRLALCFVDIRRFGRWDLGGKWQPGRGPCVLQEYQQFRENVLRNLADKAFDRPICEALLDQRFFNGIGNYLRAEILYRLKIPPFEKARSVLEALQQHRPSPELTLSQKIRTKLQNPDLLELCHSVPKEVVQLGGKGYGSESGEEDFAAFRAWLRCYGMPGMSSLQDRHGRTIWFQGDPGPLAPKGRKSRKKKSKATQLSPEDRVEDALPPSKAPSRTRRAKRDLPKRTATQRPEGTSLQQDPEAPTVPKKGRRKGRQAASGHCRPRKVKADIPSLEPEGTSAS

For `O=C(NN=C1CCCCC1)c1ccc(Br)cc1`, the Activity (Endonuclease 8-like 1 [1]) was 97.6%, the Activity [2] was 84.5% and the Activity [3] was 91.7%. For the same compound, the IC50 (Endonuclease 8-like 1 [4]) was greater than 50 µM, the IC50 [5] was greater than 50 µM and the IC50 [6] was greater than 50 µM. For the same compound, the inhibition (Endonuclease 8-like 1 [7]) was “inactive”, the inhibition (Endonuclease 8-like 1 [8]) was “inactive” and the inhibition (Endonuclease 8-like 1 [9]) was “inactive”. The inhibition [10] was “inactive”, the inhibition [11] was “inactive” and the inhibition [12] was “inactive”. The inhibition [13] was “inactive”, the inhibition [14] was “inactive” and the Activity [15] was “inactive”. The inhibition [16] was “inactive” and the inhibition [17] was “inactive”.
`O=C(N/N=C/c1ccc(F)cc1)c1sc2ccccc2c1Cl` showed an Activity (Endonuclease 8-like 1 [1]) of 86.7%, an Activity [2] of 89.2% and an Activity [3] of 81.7%. It also gave an IC50 (Endonuclease 8-like 1 [4]) greater than 50 µM, an IC50 [5] greater than 50 µM and an IC50 [6] greater than 50 µM. For the same compound, the inhibition (Endonuclease 8-like 1 [7]) was “inactive”, the inhibition (Endonuclease 8-like 1 [8]) was “inactive” and the inhibition (Endonuclease 8-like 1 [9]) was “inactive”. For the same compound, the inhibition [10] was “inactive”, the inhibition [11] was “inactive” and the inhibition [12] was “inactive”. The inhibition [13] was “inactive”, the inhibition [14] was “inactive” and the Activity [15] was “inactive”. The inhibition [16] was “inactive” and the inhibition [17] was “inactive”.
For `CC(Oc1cccc(Cl)c1)C(=O)NN` (stereo not given), the Activity (Endonuclease 8-like 1 [1]) was 95.3%, the Activity [2] was 100% and the Activity [3] was 90.8%. The Activity [15] was “inactive”.
In the case of `Cc1cc(C(=O)NNCc2ccccc2)no1`, the Activity (Endonuclease 8-like 1 [1]) is reported as 93.3%, the Activity [2] is reported as 105% and the inhibition (N-glycosylase/DNA lyase [18]) is reported as “inactive”. For the same compound, the inhibition (N-glycosylase/DNA lyase [19]) was “inactive” and the inhibition (N-glycosylase/DNA lyase [20]) was “inactive”.
With `O=C(O)C1=CC(=C(c2ccc(O)c(C(=O)O)c2)c2ccc(O)c(C(=O)O)c2)C=CC1=O` the inhibition (N-glycosylase/DNA lyase [21]) was “Active”.
For `C=CCC/C(C)=N\NC(=O)c1cccc(Br)c1`, the Activity (Endonuclease 8-like 1 [1]) was 93.5%, the Activity [2] was 90.6% and the Activity [3] was 78.8%. For the same compound, the Activity [15] was “inactive”.
In the case of `CC[n+]1c(-c2ccccc2)c2cc(N)ccc2c2ccc(N)cc21`, the Activity [15] is reported as “Active”.
In the case of `COc1cc(C)c(S(=O)(=O)n2cc(C)nc2-c2ccccc2)cc1C`, the Activity (Endonuclease 8-like 1 [1]) is reported as 100%, the Activity [2] is reported as 109% and the Activity [15] is reported as “inactive”.
For `C/C(=N\NC(=O)c1cc2ccccc2cc1O)c1ccc2c(c1)OCO2`, the Activity (Endonuclease 8-like 1 [1]) was 52%, the Activity [2] was 73% and the Activity [15] was “inactive”.
